Calls of active or inactive are those of the source. No cut-off for these calls is given here.

One experiment has as its system Zika virus. Kind of experiment: Antiviral activity against Zika virus infected in infected in golden hamster BHK cells assessed as inhibition of viral RNA production at stage III incubated for 24 hrs by qRT-PCR analysis.
Details: not given
The experiment is classed as functional, organism-based.
Take `C#C[C@@]1(O)[C@H](O)[C@@H](CO)O[C@H]1n1ccc2c(N)ncnc21`: the outcome was Active.

The test system of the next experiment is Zika virus. Kind of experiment: Antiviral activity against Zika virus infected in golden hamster BHK cells assessed as inhibition of viral RNA production at stage IV pre-infected with virus for 2 hrs followed by compound addition and measured 24 hrs post infection by qRT-PCR analysis. Type of experiment: functional, organism-based. Particulars: time 22.0 hrs. (In general: In qPCR the cycle at which signal appears reflects the starting amount.)
`C#C[C@@]1(O)[C@H](O)[C@@H](CO)O[C@H]1n1ccc2c(N)ncnc21`: the outcome was Active.

In another experiment the test system is Zika virus. The experiment in a line: Antiviral activity against Zika virus infected in golden hamster BHK cells assessed as inhibition of virus induced cytopathic effect incubated for 6 to 8 days by CellTiter-Glo luminescent cell viability assay. Type of experiment: functional, organism-based.
Details: not given
(In general: Damage to the host cells serves as the signal in cytopathic effect assays.)
As to `O[C@@H]1[C@H](O)[C@@H](CN2CCCCC2)O[C@H]1n1cnc2c(NCc3cccc(Cl)c3)ncnc21`, the half-maximal inhibitory concentration (IC50) (as a rule, the point on the concentration scale where inhibition reaches its midpoint) is above 50 µM. The same measure, in the same setting: the same measure for `O[C@@H]1[C@H](O)[C@@H](CNCc2ccc(C(F)(F)F)cc2)O[C@H]1n1cnc2c(NCc3ccco3)ncnc21`: 13.2 µM. Consider `CC1CCN(C[C@H]2O[C@@H](n3cnc4c(NCc5cccc(Cl)c5)ncnc43)[C@H](O)[C@@H]2O)CC1`, for which the concentration for half-maximal inhibition (IC50) was 6.58 µM. With `O[C@@H]1[C@H](O)[C@@H](CNCc2ccc(F)cc2)O[C@H]1n1cnc2c(NCc3cccc(Cl)c3)ncnc21`, the IC50 was 3.35 µM. Regarding `CCNC[C@H]1O[C@@H](n2cnc3c(NCc4cccc(Cl)c4)ncnc32)[C@H](O)[C@@H]1O`, the IC50 amounted to 14.7 µM. Regarding `O[C@@H]1[C@H](O)[C@@H](CNCc2ccc(C(F)(F)F)cc2)O[C@H]1n1cnc2c(NCc3ccccc3Cl)ncnc21`, the IC50 was above 50 µM.

Take `C#C[C@@]1(O)[C@H](O)[C@@H](CO)O[C@H]1n1ccc2c(N)ncnc21`: the concentration for half-maximal inhibition (IC50) was 0.85 µM. As to `CC1CCCCN1C[C@H]1O[C@@H](n2cnc3c(NCc4cccc(Cl)c4)ncnc32)[C@H](O)[C@@H]1O` (some centres undefined), the IC50 was found to be 5.67 µM. On to `Nc1ncnc2c1ncn2[C@@H]1O[C@H](CNCc2ccc(C(F)(F)F)cc2)[C@@H](O)[C@H]1O`, for which the half-inhibitory concentration (IC50) is above 50 µM.

`O[C@@H]1[C@H](O)[C@@H](CNCc2ccc(C(F)(F)F)cc2)O[C@H]1n1cnc2c(NCc3cccc(C(F)(F)F)c3)ncnc21`: the IC50 is above 50 µM.

In the case of `O[C@@H]1[C@H](O)[C@@H](CNCc2ccc(Br)cc2)O[C@H]1n1cnc2c(NCc3cccc(Cl)c3)ncnc21`, the IC50 is 2.2 µM.

Take `O[C@@H]1[C@H](O)[C@@H](CNCc2ccc(C(F)(F)F)cc2)O[C@H]1n1cnc2c(NCC3CCCCC3)ncnc21`: the IC50 was above 50 µM. Regarding `COc1cccc(CNc2ncnc3c2ncn3[C@@H]2O[C@H](CNCc3ccc(C(F)(F)F)cc3)[C@@H](O)[C@H]2O)c1`, the IC50 is 7.5 µM. Consider `CCN(CC)C[C@H]1O[C@@H](n2cnc3c(NCc4cccc(Cl)c4)ncnc32)[C@H](O)[C@@H]1O`, for which the concentration for half-maximal inhibition (IC50) was 8.43 µM. With `CC(C)N1CCN(C[C@H]2O[C@@H](n3cnc4c(NCc5cccc(Cl)c5)ncnc43)[C@H](O)[C@@H]2O)CC1`, the IC50 is above 50 µM.

Turning to `O[C@@H]1[C@H](O)[C@@H](CNCc2ccc(Cl)cc2)O[C@H]1n1cnc2c(NCc3cccc(Cl)c3)ncnc21`, the IC50 was found to be 2.7 µM.

In the case of `CCOC(=O)C1CCN(C[C@H]2O[C@@H](n3cnc4c(NCc5cccc(Cl)c5)ncnc43)[C@H](O)[C@@H]2O)CC1`, the 50% inhibitory concentration (IC50) stood at 26.8 µM.

Turning to `O[C@@H]1[C@H](O)[C@@H](CNC2CCCC2)O[C@H]1n1cnc2c(NCc3cccc(Cl)c3)ncnc21`, the IC50 amounted to 8.49 µM. Still for that read-out and setting: the same measure for `O[C@@H]1[C@H](O)[C@@H](CNCc2cccc3ccccc23)O[C@H]1n1cnc2c(NCc3cccc(Cl)c3)ncnc21`: 3.58 µM; for `CNc1ncnc2c1ncn2[C@@H]1O[C@H](CNCc2ccc(C(F)(F)F)cc2)[C@@H](O)[C@H]1O`: above 50 µM; for `O[C@@H]1[C@H](O)[C@@H](CN2CCCC2)O[C@H]1n1cnc2c(NCc3cccc(Cl)c3)ncnc21`: 17.5 µM. Regarding `O[C@@H]1[C@H](O)[C@@H](CNCc2ccncc2)O[C@H]1n1cnc2c(NCc3cccc(Cl)c3)ncnc21`, the IC50 was above 50 µM. On to `O[C@@H]1[C@H](O)[C@@H](CNCc2cccc(F)c2)O[C@H]1n1cnc2c(NCc3cccc(Cl)c3)ncnc21`, for which the IC50 was 5.76 µM. Take `CCN(C)c1ncnc2c1ncn2[C@@H]1O[C@H](CNCc2ccc(C(F)(F)F)cc2)[C@@H](O)[C@H]1O`: the 50% inhibitory concentration (IC50) was determined as 24.9 µM. On the same count and under the same terms, the same measure for `OC1CCN(C[C@H]2O[C@@H](n3cnc4c(NCc5cccc(Cl)c5)ncnc43)[C@H](O)[C@@H]2O)CC1`: above 50 µM; for `Cc1cccc(CNc2ncnc3c2ncn3[C@@H]2O[C@H](CNCc3ccc(C(F)(F)F)cc3)[C@@H](O)[C@H]2O)c1`: 5.55 µM.

Take `O[C@@H]1[C@H](O)[C@@H](CNCc2ccc(C(F)(F)F)cc2)O[C@H]1n1cnc2c(NCc3cccc(F)c3)ncnc21`: the IC50 worked out at 4.18 µM. As for `O[C@@H]1[C@H](O)[C@@H](CNCc2ccccc2)O[C@H]1n1cnc2c(NCc3cccc(Cl)c3)ncnc21`, the half-inhibitory concentration (IC50) is 4.57 µM.

With `O[C@@H]1[C@H](O)[C@@H](CNC2CCCCC2)O[C@H]1n1cnc2c(NCc3cccc(Cl)c3)ncnc21`, the IC50 was 5.28 µM. On the same count and under the same terms, the figure for `O[C@@H]1[C@H](O)[C@@H](CNCc2ccc(C(F)(F)F)cc2)O[C@H]1n1cnc2c(NCC3CCC3)ncnc21` is above 50 µM. Still for that read-out and setting: the same measure for `CCN1CCN(C[C@H]2O[C@@H](n3cnc4c(NCc5cccc(Cl)c5)ncnc43)[C@H](O)[C@@H]2O)CC1`: above 50 µM. Regarding `CN(Cc1ccc(F)cc1)C[C@H]1O[C@@H](n2cnc3c(NCc4cccc(Cl)c4)ncnc32)[C@H](O)[C@@H]1O`, the IC50 stood at 5.76 µM.

As for `O=C(NC[C@H]1O[C@@H](n2cnc3c(NCc4cccc(Cl)c4)ncnc32)[C@H](O)[C@@H]1O)c1ccc(F)cc1`, the IC50 was above 50 µM. Turning to `O[C@@H]1[C@H](O)[C@@H](CN2CCOCC2)O[C@H]1n1cnc2c(NCc3cccc(Cl)c3)ncnc21`, the concentration for half-maximal inhibition (IC50) was above 50 µM. Still for that read-out and setting: the figure for `Oc1ccc(CNC[C@H]2O[C@@H](n3cnc4c(NCc5cccc(Cl)c5)ncnc43)[C@H](O)[C@@H]2O)cc1` is 25.8 µM; for `O[C@@H]1[C@H](O)[C@@H](CNCc2ccc(C(F)(F)F)cc2)O[C@H]1n1cnc2c(NCc3ccc(Cl)cc3)ncnc21` it is above 50 µM. For `N#Cc1cccc(CNc2ncnc3c2ncn3[C@@H]2O[C@H](CNCc3ccc(C(F)(F)F)cc3)[C@@H](O)[C@H]2O)c1`, the concentration for half-maximal inhibition (IC50) is above 50 µM. With `CC(C)NC[C@H]1O[C@@H](n2cnc3c(NCc4cccc(Cl)c4)ncnc32)[C@H](O)[C@@H]1O`, the IC50 came to 6.36 µM. `O=[N+]([O-])c1ccc(CNC[C@H]2O[C@@H](n3cnc4c(NCc5cccc(Cl)c5)ncnc43)[C@H](O)[C@@H]2O)cc1`: the concentration for half-maximal inhibition (IC50) amounted to 7.52 µM. On the same count and under the same terms, the figure for `O[C@@H]1[C@H](O)[C@@H](CN2CCC3(CCNCC3)CC2)O[C@H]1n1cnc2c(NCc3cccc(Cl)c3)ncnc21` is above 50 µM; for `COc1ccc(CNC[C@H]2O[C@@H](n3cnc4c(NCc5cccc(Cl)c5)ncnc43)[C@H](O)[C@@H]2O)cc1` it is 5.01 µM. As to `O[C@@H]1[C@H](O)[C@@H](CNCc2ccc3ccccc3c2)O[C@H]1n1cnc2c(NCc3cccc(Cl)c3)ncnc21`, the half-inhibitory concentration (IC50) worked out at 1.45 µM. With `O[C@@H]1[C@H](O)[C@@H](CNCc2cccs2)O[C@H]1n1cnc2c(NCc3cccc(Cl)c3)ncnc21`, the 50% inhibitory concentration (IC50) worked out at 6.06 µM. The same measure, in the same setting: the same measure for `O[C@@H]1[C@H](O)[C@@H](CNCc2ccc(OC(F)(F)F)cc2)O[C@H]1n1cnc2c(NCc3cccc(Cl)c3)ncnc21`: 2.04 µM; for `O[C@@H]1[C@H](O)[C@@H](CNCc2ccc(C(F)(F)F)cc2)O[C@H]1n1cnc2c(NCc3cccs3)ncnc21`: above 50 µM; for `O[C@@H]1[C@H](O)[C@@H](CNC2CCC2)O[C@H]1n1cnc2c(NCc3cccc(Cl)c3)ncnc21`: 7.28 µM.

The subject of another experiment is Zika virus. The experiment in a line: Inhibition of Zika virus NS5 MTase activity at 50 uM by chemiluminescence-based enzymatic assay system relative to control.
Details: not given
For `Nc1ncnc2c1ncn2[C@@H]1O[C@H](C[C@@H](N)CC[C@H](N)C(=O)O)[C@@H](O)[C@H]1O`, the inhibition (commonly the percentage by which the read-out fell short of the control) was 67.5%.

For the origin of these results see ChEMBL document CHEMBL5634125, “Investigation of novel 5'-amino adenosine derivatives with potential anti-Zika virus activity” (Eur J Med Chem, 2023).
